How the values were obtained:
[1] = tested on: cyclin D1 transcripts in LNCaP cells; experiment: Cyclin D1 transcript expression by quantitative PCR in LNCaP cells; assay type: cell-based; conditions: 24 hours, compound 42 (50 μM), compound 36 (100 μM), compound 1 (20 μM), normalized to 18s, FIG. 2
Method: Cyclin D1 Transcript Expression Levels as measured by quantitative PCR assay. LNCaP cells were cultured at 37° C., 5% CO2 for 24 hours untreated or in the presence of R-etodolac (200 μM), compound 42 (50 μM), compound 36 (100 μM), or compound 1 (20 μM) (see Table II for structures). Cells were harvested by trypsinization, washed with PBS, and stored at −80° C. Total cellular RNA was prepared from cell pellets using the RNEasy® Mini kit (Qiagen, Inc., Valencia, Calif.). RNA was quantified by spectrophotometer. Approximately 2 μg of RNA was used to prepare cDNA using the ThermoScript™ RT-PCR System (Invitrogen, Carlsbad, Calif.).
The levels of cyclin D1 transcripts in the cDNA samples were measured using a quantitative PCR (qPCR) assay specific for cyclin D1. The cyclin D1 transcript was amplified using the following primer pair:
The cyclin D1 primers are described in a manuscript from Takayasu et al. (2001 Clin. Cancer Res. 7:901-908). All assays were performed in duplicate. All qPCR assays were performed and analyzed using a Bio-Rad iCycler (Bio-Rad, Hercules, Calif.). The levels of cyclin D1 transcripts were normalized for total input cDNA by performing a separate assay to detect the levels of a housekeeping gene (18s) using the following primer pair:
The samples were normalized for 18s transcript levels using the method of Livak et al. (2001 Methods 25:402-408). The level of cyclin D1 transcripts in the control sample was set to 1. FIG. 2 represents the averaged normalized cyclin D1 transcripts±standard deviation for three independent experiments (two independent experiments for compound 1).

[2] = biological target: T1, Cyclooxygenase-2 (human recombinant, expressed in Sf9 cell) (Homo sapiens, UniProt P35354); experiment: Cox-2 assay: human recombinant cyclooxygenase-2, PGE2 by EIA; assay type: biochemical; conditions: human recombinant enzyme; for IC50: 0.3 μM arachidonic acid, PGE2; for inhibition at 10 µM: compounds are screened at 10 μM
T1 construct: purchased Cayman 60122; host or cells: Sf9 cell
T1 sequence (P35354 18-604): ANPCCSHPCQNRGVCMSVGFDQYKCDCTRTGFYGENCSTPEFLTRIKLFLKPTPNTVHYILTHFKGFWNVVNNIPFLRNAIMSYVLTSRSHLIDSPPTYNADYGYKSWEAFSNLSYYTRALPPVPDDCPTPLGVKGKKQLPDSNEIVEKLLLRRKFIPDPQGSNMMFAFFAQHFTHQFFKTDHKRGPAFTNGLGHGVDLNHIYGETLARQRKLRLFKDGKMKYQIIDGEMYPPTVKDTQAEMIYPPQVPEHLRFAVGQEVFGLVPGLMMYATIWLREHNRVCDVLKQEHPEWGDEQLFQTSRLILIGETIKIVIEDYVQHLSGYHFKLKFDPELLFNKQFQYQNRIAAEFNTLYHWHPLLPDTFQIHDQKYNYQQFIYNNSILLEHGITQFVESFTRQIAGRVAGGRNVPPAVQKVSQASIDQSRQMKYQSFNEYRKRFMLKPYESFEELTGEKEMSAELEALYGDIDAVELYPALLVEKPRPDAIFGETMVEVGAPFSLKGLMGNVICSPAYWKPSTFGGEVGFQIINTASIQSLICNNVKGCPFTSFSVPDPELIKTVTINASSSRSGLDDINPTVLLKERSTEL
Method: Test compound and/or vehicle is pre-incubated with 0.11 U cyclooxygenase-2, 1 mM reduced glutathione (GSH), 500 μM phenol and 1 μM hematin for 15 minutes at 37° C. The reaction is initiated by addition of 0.3 μM arachidonic acid as substrate in Tris-HCl pH 7.7 and terminated after a 5 minute incubation at 37° C. by addition of 1N HCl. Following centrifugation, substrate conversion to PGE2 is measured by an Amersham EIA kit. Compounds are screened at 10 μM. […] J. Physiol.

[3] = biological target: T2, COX-1 (Homo sapiens, UniProt P23219); experiment: Cox-1 assay: PGE2 formation in human platelets; assay type: cell-based; conditions: for IC50: arachidonic acid 100 μM, PGE2; for inhibition at 10 µM: compounds are screened at 10 μM
T2 construct: endogenous in cells; host or cells: human platelets
T2 sequence (P23219 24-599): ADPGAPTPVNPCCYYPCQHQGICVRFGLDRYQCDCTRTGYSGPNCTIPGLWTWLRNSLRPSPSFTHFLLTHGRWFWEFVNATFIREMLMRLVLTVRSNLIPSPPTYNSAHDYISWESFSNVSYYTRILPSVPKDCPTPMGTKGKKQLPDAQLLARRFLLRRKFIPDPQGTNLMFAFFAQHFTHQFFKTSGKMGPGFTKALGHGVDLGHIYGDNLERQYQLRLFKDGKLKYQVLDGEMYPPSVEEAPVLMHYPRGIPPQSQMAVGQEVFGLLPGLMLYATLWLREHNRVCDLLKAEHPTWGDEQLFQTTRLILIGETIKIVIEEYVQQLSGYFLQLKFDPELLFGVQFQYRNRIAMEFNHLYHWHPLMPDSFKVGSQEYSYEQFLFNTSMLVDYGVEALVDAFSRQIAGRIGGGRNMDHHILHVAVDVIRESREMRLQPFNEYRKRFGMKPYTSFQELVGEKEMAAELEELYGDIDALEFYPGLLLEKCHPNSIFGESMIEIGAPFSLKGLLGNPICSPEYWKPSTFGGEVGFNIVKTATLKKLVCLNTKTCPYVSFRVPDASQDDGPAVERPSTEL
Method: Test compound and/or vehicle is incubated with human platelets (10^8/ml) containing the phospholipase inhibitor MLnFP (100 μM) for 15 minutes at 37° C. Arachidonic acid (100 μM) is then added for a further 15 minute incubation period. The reaction is stopped by addition of 1 N HCl and neutralized with 1N NaOH. PGE2 levels in the supernatant are determined using the Amersham EIA kit. […]

[4] = tested on: Cyclin D1 protein in LNCaP cells; experiment: Western blot of Cyclin D1 protein in LNCaP cell lysates; assay type: cell-based; conditions: LNCaP cell lysates from treated cells
[5] = tested on: PBL (peripheral blood leukocytes); experiment: Cell cytotoxicity, MTT assay, PBL; assay type: cell-based; conditions: Leukocyte, 72 h, three days incubation
Method: (§1) Normal prostate cells (PREC, Cambrex East Rutherford N.J.), prostate cancer cell line (LNCaP, ATCC), PBL (peripheral blood leukocytes-buffy coat San Diego Blood Bank), and primary CLL cells were incubated for one to two days in RPMI-1640 and 10% FBS (fetal bovine serum). They were plated in 96-well plates at 100,000 cells/well. Titrated concentrations of the compound to be tested were added to the culture medium. The cells were incubated three days at 37° C., 5% CO2. Viability of the cells was assayed by standard MTT assay. Each drug concentration was done in duplicate. MTT assay: 10 μl of 12 mM 3,[4,5-dimethylthiazol-2-yl]-2,5-diphenyltetrazolium bromide (MTT) (SIGMA) was added to each well. The cells were incubated at 37° C., 5% CO2 for 4 hours. 100 μl of 20% SDS, 0.015M HCl was added to each well and the cells were incubated overnight. The plates were read at absorbance 595 nm.

[6] = tested on: Daudi human Burkitt Lymphoma derived tumors; experiment: Daudi lymphoma murine xenograft model, efficacy; assay type: in vivo, male SCID mice; conditions: for mean tumor volume at termination of the study: p.o. in sesame oil, compound 47 250, compound 36 (printed 26) 250, compound 1 125, R-etodolac 400 mg/kg/d, control 1583 mm^3; for 4× Growth: time for the tumors to grow to 4× the initial volume at dosing, control 8.9 d; for 8× Growth: time for the tumors to grow to 8× the initial volume at dosing, control 14.5 d
Method: Male SCID mice, 6-8 weeks of age, obtained from Simonsen Laboratories, Inc. (Gilroy, Calif.) were housed in groups of five.
The Daudi human Burkitt Lymphoma cells were obtained from American Type Culture Collection and were inoculated subcutaneously (1.0×10^7 cells/mouse) on the flanks of SCID mice. After the tumors reached approximately 100 mm^3 treatment was initiated.
Body weights and tumor volume of all mice were measured and recorded twice weekly. Tumors were measured in three dimensions and volume calculated using the formula: […]. Time for the tumors (days) to grow to 4× and 8× the initial volume at dosing were assessed. Study compounds were administered at 125 or 250 mg/kg/day (M-F) via oral gavage until the end of the study.
The efficacy of chlorambucil (2 and 3 mg/kg/d), (R-etodoalc) (400 mg/kg/d) and compound 47 (250 mg/kg/d), compound 26 (250 mg/kg/d), and compound 1 (125 mg/kg/d) against Daudi derived tumors in male SCID mice were studied. R-etodolac and compounds 1, 26 and 47 were prepared in sesame oil. Both chlorambucil (ip, 0.1 ml) and compounds of the invention (per os [p.o.], 0.31 ml) were dosed daily (Monday to Friday) for two weeks. SDX-101 (0.31 ml) was dosed p.o. daily until the end of the study. […] However, all treated mice recovered after Day 2 and maintained their weights. There was no body weight loss observed in other treatment groups. At termination of the study, the control group mean tumor volume was 1583 mm^3. The mean tumor volume of chlorambucil treated groups were 864 and 766 mm^3 with 2 and 3 mg/kg/d chlorambucil treatment, respectively. The mean tumor volume of R-etodolac and compounds 1, […] and 47 were 802, 996, 1011, and 1157 mm^3 with compounds 47, 36, 1 and R-etodolac treatment, respectively. […] At termination of the study, tumor samples along with liver, kidney, and spleen samples from each group were collected and fixed in 10% buffered formalin for histopathology.

[7] = tested on: Normal prostate cells (PREC); experiment: Cell cytotoxicity, MTT assay, PREC; assay type: cell-based; conditions: Homo sapiens, 72 h, three days incubation
Method: as §1

[8] = tested on: prostate cancer cell line (LNCaP); experiment: Cell cytotoxicity, MTT assay, LNCaP; assay type: cell-based; conditions: Homo sapiens, 72 h, three days incubation
Method: as §1

[9] = tested on: primary CLL cells; experiment: Cell cytotoxicity, MTT assay, primary CLL cells; assay type: cell-based; conditions: 72 h, three days incubation
Method: as §1

| SMILES | IC50 [2] [µM] | inhibition at 10 µM [2] [%] | IC50 [3] [µM] | inhibition at 10 µM [3] [%] | melting point [°C] | cyclin D1 mRNA expression [1] | Cyclin D1 protein expression (Western blot) [4] | IC50 [5] [µM] | mean tumor volume at termination of the study [6] [mm^3] | 4× Growth [6] [days] | 8× Growth [6] [days] | IC50 [7] [µM] | IC50 [8] [µM] | IC50 [9] [µM] |
| --- | --- | --- | --- | --- | --- | --- | --- | --- | --- | --- | --- | --- | --- | --- |
| CCC1(CCO)OCCc2c1[nH]c1ccc(Br)cc21 (stereo not drawn) [Compound 42, 2-(6-BROMO-1-ETHYL-1,3,4,9-TETRAHYDRO-PYRANO[3,4-b]INDOL-1-YL)-ETHANOL] |  |  |  |  |  | inhibit cyclin D1 mRNA expression | reduced Cyclin D1 protein expression |  |  |  |  |  | 12 |  |
| CCc1cccc2c3c([nH]c12)C(CC)(CC(=O)O)OCC3 (stereo not drawn) [Etodolac, reference compound] | > 300 | -14 |  |  |  |  |  | 350 |  |  |  | 416 | 122 | 200 |
| CCC1(CCO)OCCc2c1[nH]c1cccc(F)c21 (stereo not drawn) [Compound 39, 2-(1-ETHYL-5-FLUORO-1,3,4,9-TETRAHYDRO-PYRANO[3,4-b]INDOL-1-YL)-ETHANOL] |  |  |  |  |  |  |  | 120 |  |  |  |  | 46 |  |
| CCc1cccc2c3c([nH]c12)[C@@](CC)(CC(=O)O)OCC3 [R-etodolac, reference compound] |  |  |  |  |  |  | reduced Cyclin D1 protein expression |  | 1157 | 11 | 17 |  |  |  |
| CCC1(CCO)OCCc2c1[nH]c1c(C)cccc21 (stereo not drawn) [Compound 25, 2-(1-ETHYL-8-METHYL-1,3,4,9-TETRAHYDRO-PYRANO[3,4-b]INDOL-1-YL)-ETHANOL] |  |  |  |  | 68 |  |  |  |  |  |  |  | 60 |  |

Further lines, with some results ahead:

| IC50 [2] [µM] | inhibition at 10 µM [2] [%] | IC50 [3] [µM] | inhibition at 10 µM [3] [%] | melting point [°C] | SMILES | cyclin D1 mRNA expression [1] | Cyclin D1 protein expression (Western blot) [4] | IC50 [5] [µM] | mean tumor volume at termination of the study [6] [mm^3] | 4× Growth [6] [days] | 8× Growth [6] [days] | IC50 [7] [µM] | IC50 [8] [µM] | IC50 [9] [µM] |
| --- | --- | --- | --- | --- | --- | --- | --- | --- | --- | --- | --- | --- | --- | --- |
| > 300 | 18 | > 300 | -4 |  | CCC1(CCO)OCCc2c1[nH]c1c(C(C)C)cccc21 (stereo not drawn) [Compound 36, 2-(1-ETHYL-8-ISOPROPYL-1,3,4,9-TETRAHYDRO-PYRANO[3,4-b]INDOL-1-YL)-ETHANOL] | inhibit cyclin D1 mRNA expression | reduced Cyclin D1 protein expression | 160 | 996 | 13.5 | 20.8 | 160 | 30 | 50 |
| < 10 | 100 | < 10 | 96 |  | CCc1cc(-c2ccccc2)cc2c3c([nH]c12)C(CC)(CCO)OCC3 (stereo not drawn) [Compound 1, 2-(1,8-DIETHYL-6-PHENYL-1,3,4,9-TETRAHYDRO-PYRANO[3,4-b]INDOL-1-YL)-ETHANOL] | inhibit cyclin D1 mRNA expression | reduced Cyclin D1 protein expression | 76 | 1011 | 15.8 | 21.1 | 53 | 14 | 72 |
|  |  |  |  | 114 to 115 | CCC1(CCO)OCCc2c1[nH]c1ccc(C)cc21 (stereo not drawn) [Compound 24, 2-(1-ETHYL-6-METHYL-1,3,4,9-TETRAHYDRO-PYRANO[3,4-b]INDOL-1-YL)-ETHANOL] |  |  |  |  |  |  |  | 80 |  |
| > 300 | -10 | > 300 | -69 |  | CCc1cccc2c3c([nH]c12)[C@@](CC)(CCO)OCC3 [Compound 35, R-2-(1,8-DIETHYL-1,3,4,9-TETRAHYDRO-PYRANO[3,4-b]INDOL-1-YL)-ETHANOL] |  |  | 140 |  |  |  | 220 | 68 | 100 |
| > 300 | 3 | > 300 | 24 |  | CCC1(CCO)OCCc2c1[nH]c1c(Cl)cccc21 (stereo not drawn) [Compound 27, 2-(8-CHLORO-1-ETHYL-1,3,4,9-TETRAHYDRO-PYRANO[3,4-b]INDOL-1-YL)-ETHANOL] |  |  | 150 |  |  |  | 140 | 52 | 52 |
| > 100 | 78 | 68.6 | 45 |  | CCc1cc(Br)cc2c3c([nH]c12)C(CC)(CCO)OCC3 (stereo not drawn) [Compound 47, 2-(6-BROMO-1,8-DIETHYL-1,3,4,9-TETRAHYDRO-PYRANO[3,4-b]INDOL-1-YL)-ETHANOL] |  |  | 60 | 802 | 16 | 21.5 | 14 | 3 | 21 |
